Values of other authors in patent publication US20180327354A1, “Unnatural Analogues of Calcitriol and Uses Thereof” (Vidasym, Inc., priority 2009, published 2018).
Read-outs that look alike come from different tables or passages of the source.

Key:
[1] = tested on: uremic rats; conditions: cited from earlier work
[2] = clinical studies, Martin et al., 2001; cited from earlier work
[3] = Slatopolsky et al., 1998, converted from ng/rat

C[C@H](/C=C/[C@H](C)C(C)(C)O)[C@H]1CC[C@H]2/C(=C/C=C3C[C@@H](O)C[C@H](O)C3)CCC[C@]12C [paricalcitol]
dose at which compound raises serum Ca ([1]; Noonan et al., 2008): 0.083 µg/kg | dose at which compound starts to suppress serum PTH ([1]; Noonan et al., 2008): 0.083 µg/kg | dose at which compound raises serum Ca [1, 3]: ~0.0625 µg/kg | dose at which compound starts to suppress serum PTH [1, 3]: ~0.02 µg/kg | dose at which compound raises serum Ca ([1]; Slatopolsky et al., 1998): 25 ng/rat | dose at which compound starts to suppress serum PTH ([1]; Slatopolsky et al., 1998): 8 ng/rat | fold less potent in raising serum calcium than calcitriol [2]: 10 fold | fold less potent in suppressing PTH than calcitriol [2]: about 3 fold
